Measurements as given in patent publication US8791079B2, “Methods for treating heart failure by inhibiting the mitochondrial sodium-calcium exchanger (mNCE)” (priority 2009, dated 2014).
“And” between values parts separate entries of the source, which are not always exact repeats. Equal values may be shown once. Marks after values point to notes of the source that are not given here.

Key:
[1] = system: Guinea pig ventricular myocytes; assay: Mitochondrial Ca2+ ([Ca2+]m, rhod-2) in patch-clamped myocytes; type: cell-based
Experimental: (§1) Guinea pig ventricular myocytes were isolated by enzymatic digestion as described previously. O'Rourke, B., et al., “Oscillations of membrane current and excitability driven by metabolic oscillations in heart cells,” Science, 265(5174):962-966 (Aug. 12, 1994). Cells were suspended in Dulbecco's Modification of Eagle's Medium (DMEM) supplemented with 5% fetal bovine serum, 1% penicillin/streptomycin, and 15 mmol/L HEPES, pH 7.4, and stored in a 5% CO2 incubator at 37° C.
Cytosolic Ca^2+ ([Ca^2+]c), mitochondrial Ca^2+ ([Ca^2+]m), and [Na^+]i were measured with the fluorescent indicators indo-1, rhod-2, and sodium-binding benzofuran isophthalate (SBFI), respectively (Invitrogen, Carlsbad, Calif.), and mitochondrial NADH was measured as the cellular autofluorescence with 360-nm excitation/450-nm emission. Indo-1 was loaded into cell with the membrane permeable form, indo-1 AM. To minimize indo-1 loading into the mitochondrial compartment, cells were briefly incubated with indo-1 AM at room temperature for 20 min. Rhod-2 and SBFI experiments were carried out as previously described. Maack et al., supra, Liu and O'Rourke, supra. […]
Isolated ventricular myocytes were loaded into a heated field-stimulation chamber (Warner Instruments, Hamden, Conn.) at 37° C. on the stage of a fluorescence microscope (Nikon Eclipse TE300, Nikon Instruments, Inc., Melville, N.Y.). […]

[2] = system: Guinea pig hearts; assay: Arrhythmia score and ventricular fibrillation in isolated perfused hearts; conditions: without or with CGP-37157; for Incidence of VF: hearts with VF / hearts, ouabain treatment and isoproterenol stimulation; for arrhythmia score: ten-minute ouabain treatment (0.25 μM), modified Score A, 0-4
Excerpt: Guinea pig hearts were quickly excised under anesthesia and mounted on a modified Langendorff apparatus attached to a Powerlab system (AD Instruments, Colorado Springs, Colo.). Hearts were perfused with gassed (95/5% O2/CO2) control buffer containing: 118-mM NaCl, 24-mM NaHCO3, 1.2-mM KH2PO4, 4.75-mM KCl, 1.2-mM MgSO4, 2.0-mM CaCl2, and 10-mM glucose. A buffer-filled latex balloon (Harvard apparatus) was inserted through the mitral valve into the left ventricle. Hearts were suspended in a buffer-filled heating chamber maintained at 37° C. and two electrodes were placed into the bath for volume-conducted electrocardiogram recordings. Heart rate, left ventricular developed pressure (LVDP), maximal rates of contraction and relaxation (±dP/dt), oxygen consumption, and electrocardiograms (ECG) were recorded on a computer. After a ten-minute equilibration period, hearts were subjected to the following protocol: ten-minute baseline recording while the heart was perfused with control buffer, ten-minute recording while 0.25-μM ouabain with or without 1 μM CGP-37157, and sixty-minute recording while hearts were stimulated with 25-nM isoproterenol. The measurements of hemodynamic parameters were determined by taking the average during the last two minutes before ouabain treatment (baseline) and for two minutes during the maximal effect on LVDP of either ouabain or isoproterenol.
Arrhythmias were characterized in accordance with the Lambeth Conventions, see Walker, M. J., et al., Cardiovasc. Res., 22(7):447-455 (July 1988), and scores were tabulated for the ten-minute period of ouabain treatment using modified Score A as described by Curtis, M. J. and Walker, M. J., “Quantification of arrhythmias using scoring systems: an examination of seven scores in an in vivo model of regional myocardial ischaemia,” Cardiovasc. Res., 22(9):656-665 (September 1988). Briefly, each heart was given a score based on the following criteria: 0: <50 ventricular premature beats; 1: 50-499 ventricular premature beats; 2: >500 ventricular premature beats and/or one episode of spontaneously reverting ventricular tachycardia or ventricular fibrillation; 3: more than one episode of spontaneously reverting ventricular tachycardia or fibrillation (<2 min); 4: >2 min of ventricular tachycardia or fibrillation.

[3] = system: Guinea pig ventricular myocytes; assay: Cytosolic Ca2+ ([Ca2+]c, indo-1) cycling in isolated myocytes; type: cell-based; conditions: ouabain without or with CGP-37157; for diastolic [Ca2+]c before stimulation / diastolic [Ca2+]c after three minutes of stimulation / increase of amplitude of [Ca2+]c transient (Δ[Ca2+]c) compared to control: 100-nM isoproterenol; for diastolic [Ca2+]c before stimulation: before 1-Hz stimulation; for diastolic [Ca2+]c after three minutes of stimulation: end of 1-Hz stimulation; for increase of amplitude of [Ca2+]c transient (Δ[Ca2+]c) compared to control: midpoint of 1-Hz stimulation, control = isoproterenol only; for spontaneous Ca2+ oscillations / discordant contractions: prolonged stimulation
Experimental: as §1
Cytosolic Ca^2+ ([Ca^2+]c), mitochondrial Ca^2+ ([Ca^2+]m), and [Na^+]i were measured with the fluorescent indicators indo-1, rhod-2, and sodium-binding benzofuran isophthalate (SBFI), respectively (Invitrogen, Carlsbad, Calif.), and mitochondrial NADH was measured as the cellular autofluorescence with 360-nm excitation/450-nm emission. Indo-1 was loaded into cell with the membrane permeable form, indo-1 AM. To minimize indo-1 loading into the mitochondrial compartment, cells were briefly incubated with indo-1 AM at room temperature for 20 min. Rhod-2 and SBFI experiments were carried out as previously described. Maack et al., supra, Liu and O'Rourke, supra. Cytoplasmic rhod-2 was eliminated by using rhod-2-free patch pipettes. Maack et al., supra, Liu and O'Rourke, supra. The ROS-sensitive fluorescent probe 5-(−6)-chloromethyl-2′,7′-dichlorohydrofluorescein diacetate (CM-H2DCFDA) was used to monitor the extent of oxidative stress, as previously described. Aon, M. A., et al., “Synchronized whole cell oscillations in mitochondrial metabolism triggered by a local release of reactive oxygen species in cardiac myocytes,” J. Biol. Chem., 278(45):44735-44744 (Nov. 7, 2003). This probe is primarily localized in the mitochondrial matrix, see Aon et al., supra, and is oxidized by hydrogen peroxide to yield fluorescent CM-DCF, thus indirectly reporting mitochondrial superoxide production.
(§2) Isolated ventricular myocytes were loaded into a heated field-stimulation chamber (Warner Instruments, Hamden, Conn.) at 37° C. on the stage of a fluorescence microscope (Nikon Eclipse TE300, Nikon Instruments, Inc., Melville, N.Y.). The myocytes were first superfused with control Tyrode's solution containing: NaCl (130 mmol/L), KCl (5 mmol/L), MgCl2 (1 mmol/L), Na-HEPES (10 mmol/L), CaCl2 (2 mmol/L), glucose (10 mmol/L), at pH 7.4. After one minute of recording in the absence of electrical stimulation in control buffer, 1-μM ouabain and 100-nM isoproterenol, with or without 1 μM CGP-37157, were added to buffer. After another five minutes of recording, myocytes were field-stimulated at 1 Hz for three minutes followed by a two-minute recording after returning to the resting state. To record [Ca^2+]m and action potentials, myocytes were whole-cell patch-clamped at 37° C. Tyrode's solution was used as external solution and the internal solution contained: NaCl (10 mmol/L), KCl (19 mmol/L), K-glutamate (125 mmol/L), MgCl2 (0.5 mmol/L), HEPES (10 mmol/L), MgATP (5 mmol/L), at pH 7.25.

[4] = system: Guinea pig ventricular myocytes; assay: Action potentials and delayed afterdepolarizations in current-clamped myocytes; type: cell-based; conditions: for incidence of DAD-triggered APs: 100-nM isoproterenol, 1-μM ouabain without or with 1-μM CGP-37157, 1 Hz, last minute of stimulation
Experimental: as §1, §2
In current-clamped myocytes, electrically-stimulated action potentials (APs) were recorded at 1 Hz and the probability of observing one or more delayed afterdepolarization-(DAD) triggered action potentials was determined during the last minute of stimulation.

Compound: C[C@@H]1O[C@@H](O[C@H]2C[C@@H](O)[C@]3(CO)[C@H]4[C@H](O)C[C@]5(C)[C@@H](C6=CC(=O)OC6)CC[C@]5(O)[C@@H]4CC[C@]3(O)C2)[C@H](O)[C@H](O)[C@H]1O [ouabain, 1β,3β,5β,11α,14,19-Hexahydroxycard-20(22)-enolide 3-(6-deoxy-α-L-mannopyranoside, reference compound]
- increase of diastolic [Ca2+]m during 1-Hz stimulation ([1]; 1-μM ouabain + 100-nM isoproterenol): < 10%
- Incidence of VF [2]: 7 out of 8 and 7/8
- arrhythmia score [2]: 2.7±0.5
- diastolic [Ca2+]c before stimulation [3]: 123 ± 9 nM
- diastolic [Ca2+]c after three minutes of stimulation [3]: 750 ± 142 nM
- increase of amplitude of [Ca2+]c transient (Δ[Ca2+]c) compared to control [3]: 112%
- spontaneous Ca2+ oscillations / discordant contractions [3]: developed spontaneous Ca^2+ oscillations, extrasystolic contractions, and eventual hypercontracture
- incidence of DAD-triggered APs [4]: significant increase in the incidence of DAD-triggered APs

Compound: O=C1CSC(c2ccccc2Cl)c2cc(Cl)ccc2N1 (stereo not drawn) [CGP-37157, 7-chloro-5-(2-chlorophenyl)-1,5-dihydro-4,1-benzothiazepin-2(3H)-one]
- [Ca2+]m accumulation ([1]; 1 μM CGP-37157 with 1-μM ouabain + 100-nM isoproterenol, 1-Hz stimulation): significantly enhanced [Ca^2+]m accumulation
- Incidence of VF [2]: 2 out of 7
- Incidence of VF ([2]; listed as CGP): 2/7*
- arrhythmia score [2]: 1.1±0.4
- diastolic [Ca2+]c before stimulation [3]: 99 ± 14 nM
- diastolic [Ca2+]c after three minutes of stimulation [3]: 370 ± 60 nM
- increase of amplitude of [Ca2+]c transient (Δ[Ca2+]c) compared to control [3]: 74%
- spontaneous Ca2+ oscillations / discordant contractions [3]: significantly reduced the incidence of discordant contractions
- incidence of DAD-triggered APs [4]: not significantly different from controls
- amplitude of DADs ([4]; ouabain plus CGP-37157 versus ouabain alone): smaller amplitude than in ouabain alone
